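1) Cells in 96-well plates. 2) Compound, 48 h, 5 concentrations. 3) Linear interpolation between surrounding doses. 4) Unreached endpoint = highest concentration. GI50 marks 50% less growth.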 The source made the active and inactive calls. Cut-off read from the data, not from the text of the source: active = GI50 up to about 1.1 µM and inactive = higher.

Test systems include M14; Hs-578T; A498; HCC 2998; DU-145; SF-539; SNB-19; TK-10; CAKI-1; MDA-N; K562; MOLT-4; NCI-H23; SK-MEL-2; UACC-257; SF-295; SNB-75; COLO 205; NCI/ADR-RES; KM12.
What all share (assay): inhibition of tumour cell growth, NCI panel, 48 h

Consider `COc1ccc(OC)c(CCc2cc(OC)ccc2OC)c1`, for which the GI50 in the assay with M14 was 2.09 µM (inactive); with Hs-578T, 2.69 µM (inactive); with A498, 4.48 µM (inactive); with HCC 2998 it was 3.79 µM (inactive); with DU-145, 5.19 µM (inactive); in the assay with SF-539, 2.07 µM (inactive). The GI50 in the assay on SNB-19 was 4.8 µM (inactive); in the assay with TK-10 it was 3.42 µM (inactive); in the assay on CAKI-1, 3.92 µM (inactive); in the assay with MDA-N it was 0.234 µM (active); in the assay on K562, 0.912 µM (active); in the assay with MOLT-4 it was 1.91 µM (inactive). In addition, the GI50 in the assay with NCI-H23 was 3.18 µM (inactive); with SK-MEL-2 it was 1.49 µM (inactive); in the assay with UACC-257, 5.38 µM (inactive); in the assay on SF-295, 2.11 µM (inactive); in the assay on SNB-75 it was 2.41 µM (inactive); with COLO 205, 1.29 µM (inactive). Moreover, the values for the GI50 with NCI/ADR-RES and in the assay on KM12 were 0.885 µM (active) and 0.12 µM (active), respectively.

Turning to `O=C1NN=C(O)C2C3c4ccccc4C(c4ccccc43)C12` (stereo not given), the GI50 in the assay on M14, in the assay on Hs-578T, in the assay on A498, in the assay on HCC 2998, in the assay with DU-145 and with SF-539 was > 100 µM (inactive) in each case. In addition, the GI50 in the assay with SNB-19, in the assay with TK-10, with CAKI-1, with MDA-N, with K562 and in the assay on MOLT-4 was > 100 µM (inactive) each time. Also, the GI50 in the assay with NCI-H23, in the assay on UACC-257, in the assay on SF-295, with SNB-75, with COLO 205 and in the assay with NCI/ADR-RES was > 100 µM (inactive) throughout. Moreover, the GI50 in the assay on KM12 is > 100 µM (inactive).

Consider `CCN(CC)C(=S)SNCCc1ccc(S(N)(=O)=O)cc1`, for which the GI50 in the assay on M14 is 10.9 µM (inactive); in the assay with Hs-578T, 19.5 µM (inactive); in the assay with A498, 30.7 µM (inactive); in the assay on HCC 2998, 21.6 µM (inactive); with DU-145, 14 µM (inactive); in the assay with SF-539, 14.1 µM (inactive). For the same compound, the GI50 in the assay on SNB-19 is 20 µM (inactive); in the assay with TK-10, 18.6 µM (inactive); in the assay with CAKI-1, 14 µM (inactive); in the assay on MDA-N, 18.3 µM (inactive); in the assay with K562 it was 20 µM (inactive); in the assay on NCI-H23, 18.8 µM (inactive). Further, the GI50 is 33.6 µM (inactive) in the assay with SK-MEL-2; 15.5 µM (inactive) in the assay on UACC-257; 16.7 µM (inactive) in the assay with SF-295; 13.9 µM (inactive) in the assay with SNB-75; 29.2 µM (inactive) in the assay with COLO 205; 17.4 µM (inactive) with NCI/ADR-RES. Also, the GI50 with KM12 was 16.6 µM (inactive).

In the case of `CCOC(=O)[C@@]12C[C@](/C=C/OC)(O[Si](C)(C)C)[C@@]13c1cc(OC)c(OC)cc1CCN3C(=O)C2=O`, the GI50 with M14, in the assay on Hs-578T, in the assay with A498, in the assay on DU-145, in the assay on SF-539 and in the assay on SNB-19 was > 100 µM (inactive) throughout. For the same compound, the GI50 with TK-10, in the assay on CAKI-1, in the assay on MDA-N, in the assay on K562, in the assay with MOLT-4 and with NCI-H23 was > 100 µM (inactive) each time. Also, the GI50 in the assay on SK-MEL-2, in the assay with UACC-257, with SF-295, in the assay with SNB-75, in the assay with COLO 205 and with NCI/ADR-RES was > 100 µM (inactive) in each case. For the same compound, the GI50 with KM12 is > 100 µM (inactive).

Turning to `COC(=O)C1=C(O)C(C(=O)OC)[C@@]2(O)[C@@H](C(=O)OC)C(c3ccc(OC(=O)/C(=C/c4ccccc4)c4ccccc4)cc3)C[C@@H]1[C@@H]2C(=O)OC` (stereo not given in full), the GI50 was 7.03 µM (inactive) with M14; 27.7 µM (inactive) in the assay with Hs-578T; 40.8 µM (inactive) with A498; 20.5 µM (inactive) in the assay on DU-145; 2.46 µM (inactive) in the assay with SF-539; 30 µM (inactive) in the assay with SNB-19. Besides, the GI50 was 13.2 µM (inactive) in the assay with TK-10; 11.9 µM (inactive) in the assay with CAKI-1; 6.35 µM (inactive) in the assay with MDA-N; 9.25 µM (inactive) in the assay with K562; 3.72 µM (inactive) in the assay with MOLT-4; > 100 µM (inactive) in the assay on NCI-H23. Besides, the GI50 is 14.9 µM (inactive) in the assay with SK-MEL-2; 18.9 µM (inactive) in the assay with UACC-257; 38.1 µM (inactive) with SF-295; 12.1 µM (inactive) in the assay with SNB-75; 40 µM (inactive) with COLO 205; 44.2 µM (inactive) in the assay on NCI/ADR-RES. Besides, in the assay on KM12, the GI50 is 27.9 µM (inactive).

`O=C(/C=C(\Nc1ccccc1O)c1ccccc1)C(=O)NC12CC3CC(CC(C3)C1)C2`: the GI50 is > 10 µM (inactive) in the assay on M14; > 10 µM (inactive) in the assay with Hs-578T; > 10 µM (inactive) in the assay on A498; > 10 µM (inactive) in the assay on HCC 2998; > 10 µM (inactive) with DU-145; 8.93 µM (inactive) in the assay on SF-539. For the same compound, the GI50 was > 10 µM (inactive) in the assay on TK-10; > 10 µM (inactive) with CAKI-1; > 10 µM (inactive) in the assay on MDA-N; > 10 µM (inactive) with K562; 5.66 µM (inactive) in the assay with MOLT-4; > 10 µM (inactive) in the assay on NCI-H23. Besides, the GI50 in the assay on SK-MEL-2, in the assay with UACC-257, with SF-295, in the assay with SNB-75, in the assay on COLO 205 and with NCI/ADR-RES was > 10 µM (inactive) in each case. Also, in the assay on KM12, the GI50 is 6.95 µM (inactive).

Regarding `c1ccc2c3c([nH]c2c1)C1c2[nH]c4ccccc4c2CCN1CC3`, the GI50 in the assay on Hs-578T is 17.3 µM (inactive); in the assay with A498, 19 µM (inactive); in the assay on HCC 2998, 7.64 µM (inactive); with DU-145 it was 13.2 µM (inactive); in the assay with SF-539, 17.5 µM (inactive); in the assay with TK-10 it was 11.2 µM (inactive). Moreover, the GI50 in the assay with CAKI-1 was 18.7 µM (inactive); in the assay on MDA-N, 18.1 µM (inactive); in the assay on K562, 5.78 µM (inactive); in the assay on MOLT-4, 7.59 µM (inactive); in the assay with NCI-H23, 12.3 µM (inactive); in the assay with SK-MEL-2 it was 26.8 µM (inactive). Also, the GI50 with UACC-257 is 14.5 µM (inactive); in the assay on SF-295, 16 µM (inactive); in the assay on SNB-75 it was 16.7 µM (inactive); with COLO 205, 3.79 µM (inactive); with NCI/ADR-RES it was 2.27 µM (inactive); with KM12, 12.5 µM (inactive).

Consider `CC[C@@H](C)[C@H]([C@H](CC(=O)N1CCC[C@@H]1[C@@H](OC)[C@H](C)C(=O)N[C@H](Cc1ccccc1)c1nccs1)OC)N(C)C(=O)[C@H](NC(=O)[C@@H](C(C)C)N(C)C)C(C)C`, for which the GI50 in the assay on M14 is 0.000165 µM (active); with Hs-578T, < 0.01 µM (active); in the assay on A498, 0.000228 µM (active); with HCC 2998, 0.00029 µM (active); in the assay with DU-145, < 0.01 µM (active); with SF-539, 0.000168 µM (active). Moreover, the GI50 in the assay on SNB-19 is 0.000267 µM (active); in the assay on TK-10, 0.00181 µM (active); in the assay with MDA-N, < 0.01 µM (active); in the assay with K562, 6.93e-05 µM (active); in the assay with MOLT-4, 0.000229 µM (active); with NCI-H23, 0.000224 µM (active). Further, the GI50 with SK-MEL-2 was 0.000125 µM (active); with UACC-257, 0.000262 µM (active); in the assay on SF-295, 0.000146 µM (active); in the assay with SNB-75 it was 0.000161 µM (active); in the assay with COLO 205 it was 7.13e-05 µM (active); in the assay with NCI/ADR-RES it was < 0.01 µM (active). Moreover, the GI50 with KM12 was 1.67e-05 µM (active).

As for `Cc1n[nH]c(=O)n1/N=C/c1cccc(Cl)c1`, the GI50 with M14 was > 100 µM (inactive); in the assay with Hs-578T it was 17.7 µM (inactive); in the assay with A498, 40.8 µM (inactive); with HCC 2998, > 100 µM (inactive); in the assay with DU-145, 35.6 µM (inactive); in the assay with SF-539 it was 89.5 µM (inactive). The GI50 in the assay on SNB-19 was > 100 µM (inactive); in the assay with CAKI-1, > 100 µM (inactive); with MDA-N, > 100 µM (inactive); in the assay on K562, > 100 µM (inactive); in the assay on MOLT-4, 49.3 µM (inactive); in the assay on NCI-H23, > 100 µM (inactive). Moreover, the GI50 in the assay with SK-MEL-2 is > 100 µM (inactive); in the assay on UACC-257 it was > 100 µM (inactive); in the assay on SF-295, > 100 µM (inactive); in the assay with SNB-75 it was 61.5 µM (inactive); in the assay with COLO 205, > 100 µM (inactive); with NCI/ADR-RES, > 100 µM (inactive). Also, the GI50 in the assay on KM12 was > 100 µM (inactive).

`COc1ccc(N/N=C/C2=CC(C)(C)C(C#N)(C#N)C(O)=C2C#N)cc1`: the GI50 in the assay on M14 was 54.2 µM (inactive); in the assay with Hs-578T, 44.7 µM (inactive); in the assay on A498 it was 37.9 µM (inactive); in the assay on DU-145, 77.8 µM (inactive); in the assay with SF-539, 26.1 µM (inactive); with SNB-19, 56.6 µM (inactive). The GI50 was > 100 µM (inactive) in the assay on TK-10; 36.6 µM (inactive) in the assay with CAKI-1; 54.5 µM (inactive) with MDA-N; 16.1 µM (inactive) in the assay on K562; 28.4 µM (inactive) in the assay on MOLT-4; 35.9 µM (inactive) in the assay with NCI-H23. For the same compound, the GI50 with SK-MEL-2 is 49.2 µM (inactive); with UACC-257, 25 µM (inactive); in the assay with SF-295, 36.6 µM (inactive); in the assay on SNB-75 it was > 100 µM (inactive); in the assay with COLO 205 it was 22.5 µM (inactive); in the assay with NCI/ADR-RES, 37 µM (inactive). The GI50 in the assay on KM12 was 32.5 µM (inactive).
